# Where two headings read alike, the source gives them in different places.
# How the values were obtained:
# [1] = tested on: human enterocytes; assay: 7-ethoxycoumarin O-deethylation (ECOD) activity in human enterocytes; assay type: in vitro ADME; settings: Group D permeabilized enterocytes with cofactors compared with Groups A-C (intact ± cofactors, permeabilized without cofactors)
# Experimental: The assay was performed essentially as disclosed in Example 2, wherein the in vitro reagent comprises enterocytes and exogenous drug metabolizing enzyme co-factors (NADPH, UPGA, and PAPS), herein referred to as “cofactors”. As comparators, intact enterocytes, that were not permeabilized, were used wherein one group was incubated with cofactors and another group was incubated without cofactors, each in the presence of the xenobiotic test compound. Permeabilized enterocytes incubated without cofactors were used as a control. The test groups were: Group A—intact enterocytes incubated without cofactors; Group B—intact enterocytes incubated with cofactors; Group C—permeabilized enterocytes incubated without cofactors (control); Group D—the in vitro reagent (permeabilized enterocytes incubated with cofactors). […] Permeabilization (by freezing without cryoprotectants followed by thawing) allows maximal interaction of the intracellular enzymes with the substrate (7-ethoxycoumarin), and the addition of cofactors overcomes the dilution of intracellular cofactors due to permeabilization.
# [2] = known in vivo hepatic clearance, human; cited from earlier work
# [3] = target: T1, 2J2 (Homo sapiens, UniProt P51589); assay: Pathway-selective substrate metabolism in human enterocytes, 2J2; assay type: in vitro ADME; settings: Intact Cryopreserved Enterocytes; 30 min, 37° C.
# T1 construct: enterocytes are isolated from human intestines by collagenase digestion; endogenous in cells; host or cells: primary human enterocytes, intact or permeabilized with cofactors
# T1 sequence (P51589 1-502): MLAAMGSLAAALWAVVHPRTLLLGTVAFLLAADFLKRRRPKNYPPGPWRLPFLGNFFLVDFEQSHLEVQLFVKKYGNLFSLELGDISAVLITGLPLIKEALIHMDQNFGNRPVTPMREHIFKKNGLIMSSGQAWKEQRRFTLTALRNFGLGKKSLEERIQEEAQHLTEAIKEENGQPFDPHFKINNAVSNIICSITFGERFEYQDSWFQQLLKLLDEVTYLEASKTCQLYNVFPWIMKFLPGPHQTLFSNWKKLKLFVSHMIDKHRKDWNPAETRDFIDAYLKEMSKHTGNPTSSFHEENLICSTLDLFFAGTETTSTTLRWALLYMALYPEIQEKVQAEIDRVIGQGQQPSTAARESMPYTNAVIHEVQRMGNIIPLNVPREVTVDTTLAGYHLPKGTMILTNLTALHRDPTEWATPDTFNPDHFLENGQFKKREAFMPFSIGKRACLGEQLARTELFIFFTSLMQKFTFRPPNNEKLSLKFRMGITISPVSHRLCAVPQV
# [4] = tested on: HEK293 cells
# [5] = tested on: permeabilized human hepatocytes
# Experimental: The drugs evaluated were added at a concentration of 1 μM to a hepatocyte culture of 1 million cells/ml.
# [6] = tested on: permeabilized human hepatocytes; assay: Cofactor-directed metabolic pathway selection of coumarin metabolism; assay type: in vitro ADME; settings: 75 micromolar coumarin, 30 min
# Experimental: Intact human hepatocytes allow metabolism of a drug by all hepatic pathways, selection of a specific metabolic pathway for evaluation is not easily accomplished. […] The metabolism of coumarin was used as a model for cofactor directed metabolic pathway selection. See FIG. 12 for the co-factor directed pathway selection of coumarin metabolism with the present permeabilized human hepatocytes. The exogenous drug metabolizing enzyme co-factors used were 2 mM NADPH, 2 mM NADPH+1 mM PAPS and 2 mM NADPH+5 mM […], and no cofactor addition used as a control.
SMILES,Observed in vivo CIsys [2],other results
CCOc1ccc2ccc(=O)oc2c1 [7-ethoxycoumarin],–,7-ethoxycoumarin O-deethylation (ECOD) activity [1]: Highest activity
CN(C)C/C=C/C(=O)Nc1cc2c(Nc3ccc(F)c(Cl)c3)ncnc2cc1O[C@H]1CCOC1 [Afatinib],15 mL/min/kg,–
Cc1cc(=O)n(-c2ccccc2)n1C [Antipyrine],0.5 mL/min/kg,–
COc1ccc(CCN2CCC(Nc3nc4ccccc4n3Cc3ccc(F)cc3)CC2)cc1 [Astemizole],–,"Metabolic Activity, O-Demethyl Astemizole formation [3]: BLQ"
CC(C)NCC(O)COc1ccc(CCOCC2CC2)cc1 (stereo not drawn) [Betaxolol],4.8 mL/min/kg,–
NC(=O)N1c2ccccc2C=Cc2ccccc21 [Carbamazepine],0.4 mL/min/kg,–
O=P1(N(CCCl)CCCl)NCCCO1 (stereo not drawn) [Cyclophosphamide],–,"cytotoxicity on HEK 293 cells (cellular ATP content) ([4]; with permeabilized human hepatocytes (cofactor supplemented) vs boiled or no hepatocytes, 24 hours): enhanced"
COc1ccc2c(c1)[C@]13CCCC[C@@H]1[C@H](C2)N(C)CC3 [Dextromethorphan],8.6 mL/min/kg,Permeabilized Hepatocytes Average (predicted clearance) [5]: 7.3
CN1C(=O)CN=C(c2ccccc2)c2cc(Cl)ccc21 [Diazepam],0.4 mL/min/kg,–
O=C(O)Cc1ccccc1Nc1c(Cl)cccc1Cl [Diclofenac],4.2 mL/min/kg,–
O=P1(NCCCl)OCCCN1CCCl (stereo not drawn) [Ifosfamide],–,cytotoxicity on HEK 293 cells (cellular ATP content) [4]: enhanced
O=C1Nc2ccc(Cl)cc2C(c2ccccc2Cl)=NC1O (stereo not drawn) [Lorazepam],1.1 mL/min/kg,–
O=c1ccc2ccccc2o1 [coumarin],–,Cofactor selection Result (metabolite formation) ([6]; NADPH only (2 mM)): minimal sulfation and glucuronidation; Cofactor selection Result (metabolite formation) ([6]; No co-factors): No metabolism
